Test results reported in patent US6376469B1, “Crystalline amrubicin hydrochloride” (Sumitomo Pharmaceuticals Company, Limited, priority 1997, dated 2002).

Test: Preservation stability of crystalline amrubicin hydrochlorides (80° C., 24 hours, HPLC)
Assay type: physicochemical
Conditions: for remaining amount (%): crystals kept at 80° C. for 24 hours, measured by high performance liquid chromatography, amount at the starting time defined as 100%, hydrochloride
Experimental: Preservation stability of crystalline amrubicin hydrochlorides
β-Type crystalline amrubicin hydrochloride obtained in Example 1 and α-type crystalline amrubicin hydrochloride obtained in Reference example 1 were each kept at a temperature of 80° C. for 24 hours. Thereafter, the remaining amount of crystals were measured using high performance liquid chromatography. The amount at the starting time is defined as 100%.

Compound	remaining amount (%)	thermal stability (comparison of crystal forms) (conclusion from Table 2, 80° C. for 24 hours)
CC(=O)[C@]1(N)Cc2c(O)c3c(c(O)c2[C@@H](OC2CC(O)C(O)CO2)C1)C(=O)c1ccccc1C3=O.Cl (stereo partly drawn) [α-type crystalline, (7S,9S)-9-acetyl-9-amino-7-[(2-deoxy-β-D-erythro-pentapyranosyl)oxy]-7,8,9, 10-tetrahydro-6,11-dihydroxy-5,12-naphthacenedione hydrochloride, reference compound]	92.2	
CC(=O)[C@]1(N)Cc2c(O)c3c(c(O)c2[C@@H](OC2CC(O)C(O)CO2)C1)C(=O)c1ccccc1C3=O.Cl (stereo partly drawn) [β-type crystalline, (7S,9S)-9-acetyl-9-amino-7-[(2-deoxy-β-D-erythro-pentapyranosyl)oxy]-7,8,9, 10-tetrahydro-6,11-dihydroxy-5,12-naphthacenedione hydrochloride]	100.4	higher thermal stability than α-type crystalline amrubicin hydrochloride
